This is an account of results in paper PMC12419922, “Myristoylated Cathelicidin-DM Fused With ANG1-7: A Novel Self-Assembling Antimicrobial Peptide for the Treatment and Mechanism of Diabetic Infected Wounds” (Journal of Diabetes Research, 2025).

Where a SMILES comes first, the peptide text is derived from it.

The test system of assay [1] is HUVECs. Kind of assay: Scratch wound healing assay. It counts as cell-based, human. Particulars: HG + LPS, 20 μg/mL, n = 3; for wound healing rate (scratch assay): after 12 h; for healing area (scratch assay): at 48 h. The protocol:
In a 6-well plate, HUVECs (2 × 10^5 cells/well) were seeded. The cells were starved in serum-free medium for 12 h, and then, a scratch was made vertically using a 200-μL pipette tip. […]

In assay [2] the test system is HUVECs. The assay is described as follows: Tube formation (angiogenesis) on Matrigel. It counts as cell-based, human. As to conditions: 9 h, n = 3. As to the method: The formation of vascular structure was observed by matrix glue experiment, and the angiogenesis ability was evaluated in Matrigel stent (Corning, New York). After treatment in each group, 300 μL (2 × 10^5 cells/mL) HUVECs were digested and inoculated into a 24-well plate containing Matrigel scaffold. After 9 h, the formation image of the tube was photographed.

Assay [3] deals with HUVECs. Kind of assay: MDA, thiobarbituric acid method. It counts as cell-based, human. As to conditions: HUVEC supernatant, HG + LPS (HG + LPS increased by 1.65 times); n = 3. The protocol: The level of MDA was determined by the thiobarbituric acid (TBA) method. Briefly, 100 μL of cell supernatant was mixed with 200 μL of a 10% trichloroacetic acid solution of 0.67% TBA. The mixture was incubated at 95°C for 30 min, cooled on ice, and centrifuged at 12,000 × g at 4°C for 10 min. The absorbance of the supernatant was measured at 532 nm using an enzyme-labeled instrument. The experiments were repeated three times.

For assay [4], the system named is HUVECs. The assay is described as follows: NO secretion, Griess reaction. It is filed as cell-based, human. As to conditions: HG + LPS (HG + LPS 0.5 times the original level), n = 3. As to the method: NO levels were determined using the Griess reaction. Briefly, 100 μL of cell culture supernatant was mixed with an equal volume of Griess reagent and incubated at room temperature in the dark for 30 min. The absorbance of the reaction mixture was measured at 540 nm using a microplate reader. Sodium nitrite (NaNO2) was used as a standard to generate a calibration curve, and the NO concentration in the samples was calculated accordingly. All experiments were independently performed in triplicate to ensure data reliability and reproducibility.
On the technique in general: The Griess reaction detects nitrite, a stable product of nitric oxide.

Assay [5] has as its system S. aureus (ATCC 25923) infected diabetic wound. The assay is described as follows: Diabetic mouse S. aureus-infected full-thickness skin wound model. Particulars: for wound healing rate: 7th day, 20 μg/mL in PBS, 200 μL subcutaneously for 3 days, n = 4. As to the method:
BALB/c male mice are from the Experimental Animal Center of Air Force Military Medical University. One group was fed a normal diet, and the other five groups were fed a high-fat diet for 4 weeks and then injected with 35 mg/kg streptozotocin (STZ, 35 mg/kg, Sigma) intraperitoneally for 3 days. […] After intraperitoneal injection of pentobarbital sodium (1%, […]), the dorsal hair of each animal was shaved off, and a circular full-thickness skin wound was created on the back using a 10-mm sterile mouse punch. S. aureus (ATCC 25923) was used to infect the wound site of mice, and a full-thickness wound infection model of mice was established. S. aureus was first resuscitated by operation in a biological ultra-clean table. A single colony was picked and incubated in LB medium at 37°C and 200 rpm. The concentration of the above S. aureus solution was adjusted to 1 × 10^8 CFU/mL to infect the wound of mice. Then, 24 h after S. aureus infection, three drugs, DM (20 μg/mL), ANG1-7 (20 μg/mL), and MYR-DM-ANG1-7 (20 μg/mL), were dissolved in PBS buffer, and 200 μL was injected subcutaneously for 3 days. After drug injection, the wound pus was diluted and coated with plate culture to observe the colony situation. The gross specimen imaging system (GF-7A, China) was used to record the wounds of mice on the same day and every other day after the formation of the wounds. The rubber ring with adhesive backing was used to fix the wound and prevent it from shrinking. ImageJ analysis software (NIH, Bethesda, MD, United States) was used to calculate and analyze the wound area. After 0, 3, 7, 10, and 14 days, the size of the infected wound was evaluated by rubber ring. The wound closure was measured as follows: the wound healing rate (%) = [W0 − Wn]/W0 × 100%, where W0 and Wn represent the wound area on the 0th and nth days, respectively (n = 4).
On the 14th day, the skin tissue was fixed in 4% paraformaldehyde solution, dehydrated, embedded in paraffin, sliced, and stained with hematoxylin–eosin (HE) and Masson. Skin tissue sections on Day 7 were immunofluorescently stained using rabbit anti-mouse CD31 (Cell Signaling Technology) and α-SMA (Cell Signaling Technology), and all stained sections were observed under the slide scanner (Aperio AT 2; Leica Biosystems, Germany).

In assay [6] the test system is PI3K/AKT/eNOS signaling pathway, MasR in HUVECs. The assay is described as follows: Western blot of PI3K/AKT/eNOS signaling pathway and MasR. It counts as cell-based, human. Particulars: inhibitor group. The protocol: After the specified treatments, HUVECs were harvested using a cell scraper and lysed in cell lysis buffer (Wuhan Boster Biological Engineering Co., Ltd.) for 30 min at 4°C. Total protein was quantified using a BCA protein assay kit. Lysate (20 μg) from each sample was separated by 10% sodium dodecyl sulfate–polyacrylamide gel electrophoresis (SDS-PAGE) and then transferred to a polyvinylidene fluoride (PVDF) membrane. The membrane was blocked with a fresh blocking buffer containing 5% skim milk in Tris-buffered saline with 0.1% Tween 20 (TBS-T) for 2 h at room temperature and then incubated with primary antibodies against AKT (1:1000 dilution, #4691, Cell Signaling Technology), p-AKT (1:2000 dilution, #4060, Cell Signaling Technology), PI3K (1:1000 dilution, ab191606, Abcam), p-PI3K (1:1000 dilution, ab278545, Abcam), eNOS (1:1000 dilution, #32027, Cell Signaling Technology), p-eNOS (1:1000 dilution, ab215717, Abcam), and Mas (1:1000 dilution, #85003-1-RR, Proteintech) overnight at 4°C with shaking. The membrane was washed with TBS-T for 15 min and then incubated with horseradish peroxidase (HRP)–conjugated goat anti-rabbit secondary antibody (Wuhan Sanying Biotechnology Co., Ltd.) at a 1:2000 dilution in TBS-T and 3% skim milk for 90 min at room temperature. The membrane was washed three times with TBS-T, each for 15 min, and the immune reaction signals were detected using an ECL detection method. Protein bands were detected using a chemiluminescent gel imaging system (Bio-Rad Lab, China). Protein expression was quantitatively analyzed using ImageJ software (National Institutes of Health, Bethesda, MD, United States), and the experiment was repeated three times.
(In western blotting, separated proteins are transferred to a membrane and probed.)

Consider `CC[C@H](C)[C@H](NC(=O)[C@H](CC(C)C)NC(=O)[C@@H](NC(=O)[C@H](Cc1ccc(O)cc1)NC(=O)CNC(=O)CNC(=O)[C@H](CCCNC(=N)N)NC(=O)[C@H](CC(C)C)NC(=O)[C@H](CCCCN)NC(=O)[C@H](CC(C)C)NC(=O)[C@H](CCCCN)NC(=O)[C@H](CS)NC(=O)[C@H](CC(C)C)NC(=O)[C@H](Cc1c[nH]c2ccccc12)NC(=O)CNC(=O)[C@H](CCCCN)NC(=O)[C@H](CS)NC(=O)[C@@H]1CCCN1C(=O)[C@H](CCCCN)NC(=O)[C@H](CCCNC(=N)N)NC(=O)[C@H](CCCNC(=N)N)NC(=O)[C@H](CO)NC(=O)[C@@H](N)CO)[C@@H](C)O)C(=O)NCC(=O)N[C@@H](CO)C(=O)N[C@@H](C)C(=O)N[C@H](C(=O)N[C@@H](CC(N)=O)C(=O)N[C@@H](CC(C)C)C(=O)N[C@@H](CC(N)=O)C(=O)N[C@@H](CCCNC(=N)N)C(=O)N1CCC[C@H]1C(=O)N[C@H](C(=O)N[C@@H](Cc1ccc(O)cc1)C(=O)N[C@H](C(=O)N[C@@H](CCCNC(=N)N)C(=O)N[C@@H](C)C(=O)O)C(C)C)[C@@H](C)O)[C@@H](C)O` [DM, cathelicidin-DM] (H-SSRRKPCKGWLCKLKLRGGYTLIGSATNLNRPTYVRA-OH; N-terminus and C-terminus assumed), for which, in the assay with HUVECs [1], the “wound healing rate (scratch assay)” value is 25.2% and the “healing area (scratch assay)” value is given as 52.6%. For the same compound, the “length of formed blood vessels” value with HUVECs [2] (HG + LPS (HG + LPS group 0.4 times)) was found to be 1.3 times. Moreover, in the assay with HUVECs [3], the “secretion of MDA, increased by” value was 1.2 times. Also, the “NO secretion in cell supernatant, increases to” value in the assay with HUVECs [4] came to 1.2 times. Further, in assay [5], the wound healing rate is on record as 69.86%. Further, in assay [5] (seventh day, vs the diabetes infection group, p < 0.01), the “fluorescence intensity of α-SMA” value was “significantly higher”.
Turning to `O=c1cc(N2CCOCC2)oc2c(-c3ccccc3)cccc12` [LY294002, reference compound], the “increase in p-PI3K, p-AKT, and p-eNOS levels” value in assay [6] is recorded as “significantly inhibited”.
Take DRVYIH [ANG1-7, angiotensin 1-7]: in the assay with HUVECs [1], the “wound healing rate (scratch assay)” value turned out to be 44.7% and the “healing area (scratch assay)” value was found to be 72.06%. The “main connections of formed blood vessels” value in the assay on HUVECs [2] (HG + LPS (HG + LPS group 0.3 times)) was found to be 1.4 times. In the assay with HUVECs [3], the “secretion of MDA, decreased by” value is on record as 0.56 times. For the same compound, the “NO secretion in cell supernatant, increases to” value in the assay on HUVECs [4] was 1.65 times. The wound healing rate in assay [5] came to 40.69%.
